Assay [1] relates to M. tuberculosis strain H37Rv. The assay is described as follows: EUCAST broth microdilution MIC determination. The format is cell-based, Mycobacterium tuberculosis. (In general: In broth dilution the organism is exposed to a series of concentrations in liquid medium.)
The test system of assay [2] is HEK-293 (human embryonic kidney 293) cells. In words: MTT cytotoxicity assay, HEK-293. The format is cell-based. The following applies: for selectivity index SI, HEK-293 / selectivity indices (SI): ratio of IC50 to MIC; for IC50: Homo sapiens; for selectivity indices (SI): both cell lines HEK-293 and CCL-1. As for the experimental part: (§1) The cytostatic activity of the investigational compounds was determined using a standard MTT-based colorimetric assay for evaluating cell viability. HEK-293 and CCL-1 cells were harvested and seeded (100 µL/well) in 96-well plates at a density of 3 × 10^5. Following a 24 h incubation, the cells were treated with serial dilutions of the tested compounds in the concentration range of 200.0–12.5 µM. Following an exposure time of 72 h, a filter-sterilized MTT substrate solution (5 mg/mL in PBS) was added to each well of the culture plate. A further 1–4 h incubation allowed the formation of purple insoluble precipitates of the formazan dye. The latter was dissolved in an isopropyl alcohol solution containing 5% formic acid for absorbance measurement at 550 nm. The collected absorbance values were blanked against MTT-and isopropanol solution and normalized to the mean value of the untreated control (100% cell viability).
(§2) Semi-logarithmic “dose-response” curves were computed using nonlinear regression in GraphPad Prism® 8.0. The antiproliferative potential of the studied compounds was rated according to the calculated half-maximal inhibitory concentrations (IC50 values).
(In general: Tetrazolium assays rely on reduction of a dye to a coloured formazan, in cell work by metabolically active cells.)

Assay [3] relates to CCL-1 mouse fibroblast cell line. The assay is described as follows: MTT cytotoxicity assay, CCL-1. The class given is cell-based. The following applies: for selectivity index SI, CCL-1: ratio of IC50 to MIC; for IC50: Mus musculus. As for the experimental part:
as §1, §2

Where [4] appears, read: M. tuberculosis strain H37Rv, lowest concentration without visual growth, read-out: MIC a.
[5] abbreviates: Mycobacterium tuberculosis, H37RV, M. tuberculosis strain H37Rv, lowest concentration without visual growth, read-out: MIC a.
Where [6] appears, read: HEK293, 72 h, read-out: IC50 (µM) c HEK-293.
Where [7] appears, read: Mycobacterium tuberculosis, H37RV, read-out: MIC a (µM).
Where [8] appears, read: CCL-1, 72 h, read-out: IC50 (µM) b CCL-1.

≈ marks a conversion by molar mass, not a printed value. Where two headings read alike, the source gives them in different places.

`Cc1nnsc1C(=O)N/N=C/c1c(Cl)c2ccccc2oc1=O` [3a, N’-[(E)-(4-chloro-2-oxo-2H-1-benzopyran-3-yl)methylidene]-4-methyl-1,2,3-thiadiazole-5-carbohydrazide]: the MIC (usually the smallest concentration in the dilution series that meets the test's criterion for growth inhibition) in assay [1] (setting [4]) is 0.3914 µM (≈ 0.137 µg/mL); in assay [1] (setting [5]), below 0.4 µM.

For the molecule `COc1ccc2c(c1)c(/C=N/NC(=O)c1snnc1C)cn2C` [3b, N’-[(E)-(5-methoxy-1-methyl-1H-indol-3-yl)methylidene]-4-methyl-1,2,3-thiadiazole-5-carbohydrazide], the MIC in assay [1] (setting [4]) is 0.3294 µM (≈ 0.108 µg/mL); in assay [1] (setting [5]), below 0.4 µM.

For `Cc1nnsc1C(=O)N/N=C/c1c[nH]c2ccc(OCc3ccccc3)cc12` [3c, N’-((E)-[5-(benzyloxy)-1H-indol-3-yl]methylidene)-4-methyl-1,2,3-thiadiazole-5-carbohydrazide], the “selectivity index SI, HEK-293” value in assay [2] (as assigned in running text) stood at 2242. The “selectivity index SI, CCL-1” value in assay [3] (as assigned in running text) is reported as 4093.

As for `COc1cc(/C=N/NC(=O)c2snnc2C)ccc1O` [3d, N’-[(E)-(4-hydroxy-3-methoxyphenyl)methylidene]-4-methyl-1,2,3-thiadiazole-5-carbohydrazide], the IC50 – broadly, the concentration that gives 50% inhibition – turned out to be 257 µM in assay [2] (HEK293, MTT, as assigned in running text, read-out: IC50, human embryonic kidney cells HEK-29) and 218 µM in assay [3] (Fibroblast, MTT, as assigned in running text, read-out: IC50, mouse fibroblast cells CCL-1). Besides, the “selectivity index SI, HEK-293” value in assay [2] (as assigned in running text) is 3516. Also, in assay [1] (setting [5]), the MIC was below 0.1 µM. Moreover, in assay [3] (as assigned in running text), the “selectivity index SI, CCL-1” value was found to be 2979.

As to `COc1ccc2c(c1)c(/C=N/NS(=O)(=O)c1ccccc1)cn2C` [5b, N’-[(E)-(5-methoxy-1-methyl-1H-indol-3-yl)methylidene]benzenesulfonohydrazide], the MIC is 0.2027 µM (≈ 0.0696 µg/mL) in assay [1] (setting [4]) and below 0.4 µM in assay [1] (setting [5]).

For the molecule `O=S(=O)(N/N=C/c1c[nH]c2ccc(OCc3ccccc3)cc12)c1ccccc1` [5c], the IC50 in assay [2] (setting [6]) worked out at 32.3 ± 1.5 µM; in assay [3] (setting [8]), 321 ± 16.2 µM. Also, the MIC in assay [1] (setting [7]) stood at 0.343 µM (≈ 0.139 µg/mL).

`O=S(=O)(N/N=C/c1c[nH]c2ccc(Cl)cc12)c1ccccc1` [5d, N’-[(E)-(5-chloro-1H-indol-3-yl)methylidene]benzenesulfonohydrazide]: the minimum inhibitory concentration (MIC) in assay [1] (setting [5]) came out at 0.167 µM (≈ 0.0557 µg/mL).

For the molecule `COc1ccc2[nH]cc(/C=N/NS(=O)(=O)c3ccccc3)c2c1` [5e, N’-[(E)-(5-methoxy-1H-indol-3-yl)methylidene]benzenesulfonohydrazide], the minimal inhibitory concentration (MIC) in assay [1] (setting [5]) worked out at 0.165 µM (≈ 0.0542 µg/mL).

On to `O=[N+]([O-])c1ccccc1/C=N/NS(=O)(=O)c1ccccc1` [5f, N’-[(E)-(2-nitrophenyl)methylidene]benzenesulfonohydrazide], for which the MIC in assay [1] (setting [5]) is 0.305 µM (≈ 0.0932 µg/mL).

In the case of `O=[N+]([O-])c1ccc(/C=N/NS(=O)(=O)c2ccccc2)cc1` [5g, N’-[(E)-(4-nitrophenyl)methylidene]benzenesulfonohydrazide], the “selectivity indices (SI)” value in assay [2] is above 1000. In assay [1] (setting [5]), the MIC was below 0.1 µM.

As to `O=S(=O)(N/N=C/c1ccc(Cl)cc1)c1ccccc1` [5i, N’-[(E)-(4-chlorophenyl)methylidene]benzenesulfonohydrazide], the IC50 in assay [2] (setting [6]) is 100 ± 9.3 µM; in assay [3] (setting [8]), 131 ± 11.4 µM. Moreover, in assay [1] (setting [7]), the MIC was determined as 0.147 µM (≈ 0.0434 µg/mL).

Regarding `COc1ccc(/C=N/NS(=O)(=O)c2ccccc2)cc1OC` [5j, N’-[(E)-(3,4-dimethoxyphenyl)methylidene]benzenesulfonohydrazide], the IC50 in assay [2] (setting [6]) turned out to be 47.4 ± 6.8 µM; in assay [3] (setting [8]), 83.5 ± 7 µM. Further, in assay [1] (setting [7]), the MIC turned out to be 0.321 µM (≈ 0.103 µg/mL).

In the case of `O=S(=O)(N/N=C/C=C/c1ccccc1)c1ccccc1` [5k, N’-[(1E,2E)-3-phenylprop-2-en-1-ylidene]benzenesulfonohydrazid], in assay [2] (as assigned in running text), the “selectivity index SI, HEK-293” value came to 3380. Besides, the “selectivity indices (SI)” value in assay [2] is on record as above 1000. Also, the MIC in assay [1] (setting [5]) was below 0.1 µM. Further, in assay [3] (as assigned in running text), the “selectivity index SI, CCL-1” value came out at 2216.

In the case of `NNC(=O)c1ccncc1` [INH, isoniazid, reference compound], the MIC in assay [1] (setting [5]) stood at 0.0343 µM (≈ 0.0047 µg/mL).

As for “N’-[(E)-(3-hydroxy-4-methoxyphenyl)methylidene]benzenesulfonohydrazide [5h]”, in assay [1] (setting [4]), the MIC worked out at 0.3203 µM.
